Columns and labels:
[1] = Renal toxicity in Albino mouse assessed as change in tubular capillaries at 50 to 2000 mg/kg, po measured after 14 days; type: organism-based; conditions: in vivo, 336 h, dose 50-2000 mg/kg, time 14 day
[2] = Acute toxicity in Albino mouse assessed as change in RBC count measured per million cells at 50 to 2000 mg/kg, po measured after 14 days (reference value: 9.15 microL); type: organism-based, Erythrocyte; conditions: in vivo, 336 h, dose 50-2000 mg/kg, time 14 day
[3] = Hepatotoxicity in Albino mouse assessed as change in central vein at 50 to 2000 mg/kg, po measured after 14 days; type: toxicity, organism-based; conditions: in vivo, 336 h, dose 50-2000 mg/kg, time 14 day
[4] = Cytotoxicity against african green monkey Vero cells by MTT assay; type: toxicity, cell-based; conditions: chlorocebus sabaeus
[5] = Acute toxicity in Albino mouse assessed as change in neutrophils at 50 to 2000 mg/kg, po measured after 14 days (reference value: 75%); type: organism-based; conditions: in vivo, 336 h, dose 50-2000 mg/kg, time 14 day
[6] = Acute toxicity in Albino mouse assessed as change in ESR at 50 to 2000 mg/kg, po measured after 14 days (reference value: 10 millimeter); type: organism-based; conditions: in vivo, 336 h, dose 50-2000 mg/kg, time 14 day
[7] = Cytotoxicity against african green monkey Vero cells assessed as cell viability at 50 ug/ml by MTT assay; type: toxicity, cell-based; conditions: chlorocebus sabaeus, at 50 µg/mL, read-out: Activity
[8] = Acute toxicity in Albino mouse assessed as change in serum urea level at 50 to 2000 mg/kg, po measured after 14 days (reference value: 46 mg/dl); type: organism-based; conditions: in vivo, 336 h, dose 50-2000 mg/kg, time 14 day
[9] = Acute toxicity in Albino mouse assessed as change in SGPT count at 50 to 2000 mg/kg, po measured after 14 days (reference value: 52 IU/L); type: organism-based; conditions: in vivo, 336 h, dose 50-2000 mg/kg, time 14 day
[10] = Renal toxicity in Albino mouse assessed as change in renal tubules at 50 to 2000 mg/kg, po measured after 14 days; type: organism-based; conditions: in vivo, 336 h, dose 50-2000 mg/kg, time 14 day
[11] = Acute toxicity in Albino mouse assessed as mortality at 300 mg/kg, po after 5 to 8 hrs; type: organism-based; conditions: in vivo, time 5-8 hrs
[12] = Acute toxicity in Albino mouse assessed as change in ALP level at 50 to 2000 mg/kg, po measured after 14 days (reference value: 28 IU/L); type: organism-based; conditions: in vivo, 336 h, dose 50-2000 mg/kg, time 14 day
[13] = Renal toxicity in Albino mouse assessed as change in Bowman's capsule at 50 to 2000 mg/kg, po measured after 14 days; type: organism-based; conditions: in vivo, 336 h, dose 50-2000 mg/kg, time 14 day
[14] = Acute toxicity in Albino mouse assessed as change in LDH level at 50 to 2000 mg/kg, po measured after 14 days (reference value: 1052 IU/L); type: organism-based; conditions: in vivo, 336 h, dose 50-2000 mg/kg, time 14 day
[15] = Pulmonary toxicity in Albino mouse assessed as change in alveoli structure at 50 to 2000 mg/kg, po measured after 14 days; type: organism-based; conditions: in vivo, 336 h, dose 50-2000 mg/kg, time 14 day
[16] = Acute toxicity in Albino mouse assessed as change in eosinophils at 50 to 2000 mg/kg, po measured after 14 days (reference value: 3%); type: organism-based; conditions: in vivo, 336 h, dose 50-2000 mg/kg, time 14 day
[17] = Pulmonary toxicity in Albino mouse assessed as appearance of cilia at 50 to 2000 mg/kg, po measured after 14 days; type: organism-based; conditions: in vivo, 336 h, dose 50-2000 mg/kg, time 14 day
[18] = Renal toxicity in Albino mouse assessed as structural absorbability abnormalities at 50 to 2000 mg/kg, po measured after 14 days; type: organism-based; conditions: in vivo, 336 h, dose 50-2000 mg/kg, time 14 day
[19] = Pulmonary toxicity in Albino mouse assessed as change in squamous pneumocytes at 50 to 2000 mg/kg, po measured after 14 days; type: organism-based; conditions: in vivo, 336 h, dose 50-2000 mg/kg, time 14 day
[20] = Acute toxicity in Albino mouse assessed as change in SGOT count at 50 to 2000 mg/kg, po measured after 14 days (reference value: 42 IU/L); type: organism-based; conditions: in vivo, 336 h, dose 50-2000 mg/kg, time 14 day
[21] = Acute toxicity in Albino mouse assessed as change in lymphocytes at 50 to 2000 mg/kg, po measured after 14 days (reference value: 21%); type: organism-based; conditions: in vivo, 336 h, dose 50-2000 mg/kg, time 14 day
[22] = Cytotoxicity against african green monkey Vero cells assessed as cell viability at 100 ug/ml by MTT assay; type: toxicity, cell-based; conditions: chlorocebus sabaeus, at 100 µg/mL, read-out: Activity
[23] = Cytotoxicity against african green monkey Vero cells assessed as cell viability at 25 ug/ml by MTT assay; type: toxicity, cell-based; conditions: chlorocebus sabaeus, at 25 µg/mL, read-out: Activity
[24] = Hepatotoxicity in Albino mouse assessed as change in bile duct at 50 to 2000 mg/kg, po measured after 14 days; type: toxicity, organism-based, Liver; conditions: in vivo, 336 h, dose 50-2000 mg/kg, time 14 day
[25] = Cytotoxicity against african green monkey Vero cells assessed as cell viability at 3.125 ug/ml by MTT assay; type: toxicity, cell-based; conditions: chlorocebus sabaeus, at 3.125 µg/mL, read-out: Activity
[26] = Acute toxicity in Albino mouse assessed as change in hemoglobin level at 50 to 2000 mg/kg, po measured after 14 days (reference value: 12.8 g/dl); type: organism-based; conditions: in vivo, 336 h, dose 50-2000 mg/kg, time 14 day
[27] = Renal toxicity in Albino mouse assessed as extravasation of RBC at 50 to 2000 mg/kg, po measured after 14 days; type: organism-based, Erythrocyte; conditions: in vivo, 336 h, dose 50-2000 mg/kg, time 14 day
[28] = Acute toxicity in Albino mouse assessed as change in total leucocyte count at 50 to 2000 mg/kg, po measured after 14 days (reference value: 7400 mm3); type: organism-based; conditions: in vivo, 336 h, dose 50-2000 mg/kg, time 14 day
[29] = tested on: Mycobacterium tuberculosis; assay: Antitubercular activity against Mycobacterium tuberculosis H37Rv incubated for 5 days by microtiter plate method; type: functional; conditions: 120 h, time 5 day
[30] = Acute toxicity in po dosed Albino mouse assessed as mortality after 14 days; type: organism-based; conditions: in vivo, time 14 day
[31] = Acute toxicity in Albino mouse assessed as mortality at 2000 mg/kg, po after 2 to 4 hrs; type: organism-based; conditions: in vivo, time 2-4 hrs
[32] = Acute toxicity in Albino mouse assessed as change in monocytes at 50 to 2000 mg/kg, po measured after 14 days (reference value: 1%); type: organism-based; conditions: in vivo, 336 h, dose 50-2000 mg/kg, time 14 day
[33] = Hepatotoxicity in Albino mouse assessed as change in portal vein at 50 to 2000 mg/kg, po measured after 14 days; type: toxicity, organism-based; conditions: in vivo, 336 h, dose 50-2000 mg/kg, time 14 day
[34] = Pulmonary toxicity in Albino mouse assessed as change in alveolar sacs at 50 to 2000 mg/kg, po measured after 14 days; type: organism-based; conditions: in vivo, 336 h, dose 50-2000 mg/kg, time 14 day
[35] = Pulmonary toxicity in Albino mouse assessed as appearance of goblet cells at 50 to 2000 mg/kg, po measured after 14 days; type: organism-based; conditions: in vivo, 336 h, dose 50-2000 mg/kg, time 14 day
[36] = Hepatotoxicity in Albino mouse assessed as change in hepatic artery at 50 to 2000 mg/kg, po measured after 14 days; type: toxicity, organism-based, Liver; conditions: in vivo, 336 h, dose 50-2000 mg/kg, time 14 day
[37] = Pulmonary toxicity in Albino mouse assessed as change in bronchi structure at 50 to 2000 mg/kg, po measured after 14 days; type: organism-based; conditions: in vivo, 336 h, dose 50-2000 mg/kg, time 14 day
[38] = Renal toxicity in Albino mouse assessed as change in proximal convoluted tubules at 50 to 2000 mg/kg, po measured after 14 days; type: organism-based; conditions: in vivo, 336 h, dose 50-2000 mg/kg, time 14 day
[39] = Cytotoxicity against african green monkey Vero cells assessed as cell viability at 12.5 ug/ml by MTT assay; type: toxicity, cell-based; conditions: chlorocebus sabaeus, at 12.5 µg/mL, read-out: Activity
[40] = Acute toxicity in Albino mouse assessed as change in serum creatine level at 50 to 2000 mg/kg, po measured after 14 days (reference value: 0.9 mg/dl); type: organism-based; conditions: in vivo, 336 h, dose 50-2000 mg/kg, time 14 day
[41] = Acute toxicity in Albino mouse assessed as change in platelet count at 50 to 2000 mg/kg, po measured after 14 days (reference value: 3.24 mm3); type: organism-based; design: unit not given here; conditions: in vivo, 336 h, dose 50-2000 mg/kg, time 14 day
[42] = Cytotoxicity against african green monkey Vero cells assessed as cell viability at 6.25 ug/ml by MTT assay; type: toxicity, cell-based; conditions: chlorocebus sabaeus, at 6.25 µg/mL, read-out: Activity
[43] = Hepatotoxicity in Albino mouse assessed as change in portal tracks at 50 to 2000 mg/kg, po measured after 14 days; type: toxicity, organism-based; conditions: in vivo, 336 h, dose 50-2000 mg/kg, time 14 day
[44] = Renal toxicity in Albino mouse assessed as change in renal corpuscles at 50 to 2000 mg/kg, po measured after 14 days; type: organism-based; conditions: in vivo, 336 h, dose 50-2000 mg/kg, time 14 day
[45] = Renal toxicity in Albino mouse assessed as change in distal convoluted tubules at 50 to 2000 mg/kg, po measured after 14 days; type: organism-based; conditions: in vivo, 336 h, dose 50-2000 mg/kg, time 14 day
[46] = Acute toxicity in Albino mouse assessed as mortality at 50 mg/kg, po after 14 days; type: organism-based; conditions: in vivo, 336 h, time 14 day

## O=C1C(Cl)=C(N2C(=O)C(Cl)C2c2ccc([N+](=O)[O-])cc2)C(=O)c2ccccc21 (stereo unspecified)
[1]
  Activity: Non-Toxic
[2]
  Activity: 9.85
[3]
  Activity: Non-Toxic
[4]
  Activity: Dose-Dependent Effect
[5]
  Activity: 72%
[6]
  Activity: 15 millimeter/hr
[7]
  viability at 50 ug/ml: 21.4%
[8]
  Activity: 37.75 mg/dL
[9]
  Activity: 43.21 IU/L
[10]
  Activity: Non-Toxic
[11]
  Activity: Toxic
[12]
  Activity: 429.54 IU/L
[13]
  Activity: Non-Toxic
[14]
  Activity: 505 IU/L
[15]
  Activity: Non-Toxic
[16]
  Activity: 4%
[17]
  Activity: Non-Toxic
[18]
  Activity: Non-Toxic
[19]
  Activity: Non-Toxic
[20]
  Activity: 168.42 IU/L
[21]
  Activity: 39%
[22]
  viability at 100 ug/ml: 9.6%
[23]
  viability at 25 ug/ml: 46.2%
[24]
  Activity: Non-Toxic
[25]
  viability at 3.125 ug/ml: 100%
[26]
  Activity: 13.2 g/dL
[27]
  Activity: Non-Toxic
[28]
  Activity: 8800 mm3
[29]
  MIC: 30 µM
[30]
  LD50 at 336 h: 50 mg/kg
[31]
  Activity: Toxic
[32]
  Activity: 1%
[33]
  Activity: Non-Toxic
[34]
  Activity: Non-Toxic
[35]
  Activity: Non-Toxic
[36]
  Activity: Non-Toxic
[37]
  Activity: Non-Toxic
[38]
  Activity: Non-Toxic
[39]
  viability at 12.5 ug/ml: 78%
[40]
  Activity: 0.33 mg/dL
[41]
  Activity: 5.95
[42]
  viability at 6.25 ug/ml: 100%
[43]
  Activity: Non-Toxic
[44]
  Activity: Non-Toxic
[45]
  Activity: Non-Toxic
[46]
  Activity: Non-Toxic

## O=C1C(Cl)=C(N2C(=O)C(Cl)C2c2cccc([N+](=O)[O-])c2)C(=O)c2ccccc21 (stereo unspecified)
[29]
  MIC: 12.5 µg/mL

## O=C1C(Cl)=C(/N=C/c2ccc([N+](=O)[O-])cc2)C(=O)c2ccccc21
[29]
  MIC: 12.5 µg/mL

## CCOc1cc(/C=N/C2=C(Cl)C(=O)c3ccccc3C2=O)ccc1O
[29]
  MIC: 6.25 µg/mL

## O=C1C(Cl)=C(/N=C/c2ccc(Cl)cc2)C(=O)c2ccccc21
[29]
  MIC: 6.25 µg/mL

## O=C1C(Cl)=C(/N=C/c2ccccc2)C(=O)c2ccccc21
[29]
  MIC: 12.5 µg/mL

— ChEMBL document CHEMBL5500384, “New synergistic benzoquinone scaffolds as inhibitors of mycobacterial cytochrome bc1 complex to treat multi-drug resistant tuberculosis” (Eur J Med Chem, 2024)
